Reference: the NIST ThermoML archive (doi:10.1016/j.fluid.2016.02.037)
Values joined by “and” are separate entries in the source; they are usually repeats but may differ in a detail not shown here. Equal entries are not always repeated.

Assay: Molar enthalpy of transition or fusion
Details: Crystal; DSC

- Molar enthalpy of transition or fusion: 4.51 kcal/mol and 3.33 kcal/mol
SMILES: Cn1nnnc1SCC1=C(C(=O)[O-])N2C(=O)[C@@H](NC(=O)[C@H](OC=O)c3ccccc3)[C@H]2SC1.[Na+] [cefamandole nafate]
